# Experimental data as given in patent publication US20090221530A1, “Relaxase Modulators and Methods of Using Same” (priority 2005, published 2009).
# Where two headings read alike, the source gives them in different places.
# Experiments:
# F+ donor cells = assay: microbe, parasite or virus in culture; format: cell-based, E. coli; conditions: for EC50: Escherichia coli, 100 min, vs. F+ donor cells, read-out: 100 minute EC50; for Selectivities by EC50, Transconj.: listed as vs. F+ donor cells relative to transconjugants
# Excerpt: (§1) A 96-well fluorescence-based assay using oxygen biosensor plates (Becton Dickinson, Franklin Lakes, N.J., U.S.A.) was employed to monitor bacterial cell survival. FIG. 7 schematically illustrates the assay mechanism of action. […] In the absence of viable bacteria, however, no fluorescence emission is detected because the fluorophore is quenched by free oxygen. The assay can further be utilized to measure conjugative DNA transfer.
# (§2) Relaxase-dependent cell survival was examined by placing cultures of F+/TraI+ E. coli cells (with antibiotic resistance, e.g., Ab^r1, on a non-conjugative plasmid) within wells and exposing them to putative inhibitory compounds. […] Negative controls for this assay can be F− (Ab^r2) cells and F+ cells (Ab^r1) containing either no F plasmid relaxase (TraI) gene, or a TraI harboring catalytic tyrosine to phenylalanine mutations; in both cases, these control cells should be resistant to relaxase-dependent cell toxicity. […] Fluorescence can be measured using a PHERASTAR™ fluorescence plate reader (BMG LABTECH, Offenburg, Germany) over 8 hours time.
# F− recipient cells = assay: microbe, parasite or virus in culture; format: cell-based, E. coli; conditions: for EC50: Escherichia coli, 100 min, vs. F− recipient cells, read-out: 100 minute EC50; for Selectivities by EC50, Donors: listed as vs. F− recipient cells relative to donors; for Selectivities by EC50, Transconj.: listed as vs. F− recipient cells relative to transconjugants
# Excerpt: as §1, §2
# transconjugants = assay: microbe, parasite or virus in culture; format: cell-based, E. coli; conditions: for EC50: Escherichia coli, 100 min, read-out: 100 minute EC50, vs. transconjugants; for Selectivities by EC50, Donors: listed as vs. transconjugants relative to donors
# Excerpt: as §1, §2
# F plasmid TraI N300 = molecular target: T1, F plasmid TraI N300 (Escherichia coli, UniProt P14565); assay: Fluorescence kinetic assay of oriT DNA cleavage and crossover by TraI N300; format: biochemical, E. coli
# T1 construct: An amino-terminal 300 residue F plasmid TraI construct; made in house; host or cells: E. coli BL21 (DE3)/pLysS or HMS174 (DE3)/pLysS, vector pTYB2
# T1 sequence (P14565 1-306): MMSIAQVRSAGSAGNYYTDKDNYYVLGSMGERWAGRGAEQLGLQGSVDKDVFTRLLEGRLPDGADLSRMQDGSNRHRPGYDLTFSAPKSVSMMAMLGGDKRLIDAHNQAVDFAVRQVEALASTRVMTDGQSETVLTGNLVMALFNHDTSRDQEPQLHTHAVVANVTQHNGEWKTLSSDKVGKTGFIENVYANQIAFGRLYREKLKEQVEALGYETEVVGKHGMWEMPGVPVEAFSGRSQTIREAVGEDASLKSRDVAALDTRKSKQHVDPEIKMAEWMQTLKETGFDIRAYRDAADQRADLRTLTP
# Method: Reaction Buffer: 6.42 mM MgCl2, 20.5% glycerol, 153.9 mM NaCl, and 51.3 mM Tris-HCl pH 7.5. Streptavidin Wash Buffer (Tris buffered saline, TBS/Tween): and 150 mM NaCl, 25 mM Tris-HCl pH 7.5, and 0.05% Tween-20. Stopping Buffer: 1.2% sodium-dodecyl sulfate (SDS), and 300 mM EDTA pH 10. TE Buffer: 1 mM EDTA, and 10 mM Tris-HCl pH 7.4. Fluorescence Buffer: 80% glycerol, 200 mM Tris-HCl pH 8.0. Short-term N300 stock (for storage at −20° C.): 50% Reaction Buffer, 49.8% glycerol, 0.2% long-term protein solution (84.6 nM final N300 concentration). All 5× stocks except Probe stocks were diluted in Reaction Buffer. 5× Enzyme Stock: 8.4 mL short-term N300 stock diluted to 2.02 nM N300. 5× Inhibitor Stocks: imidodiphosphate (pNp) at 0-50 nM in Reaction Buffer. 5× Substrate Stocks: oligonucleotides b29 and PCb31eco diluted to […] each, by 3-fold serial dilutions. 5× Probe Stocks: […] (1.2-fold molar excess) oligonucleotide downF in TE Buffer. All reactions and procedures involving downF were assembled or performed in darkened conditions. Solutions and microtiter plates containing downF were kept in foil-lined containers at all times to prevent photobleaching.
# Two oriT derived oligonucleotides, b29 and PCb31eco, were designed for binding and cleavage by TraI based on past studies (see Oligonucleotides section herein; FIG. 4A). The overall method is modified from those described previously for the study of TraI and R388TrwC (Byrd et al., 2002; Grandoso et al., 2000; Matson and Morton, 1991). Reactions were assembled from 16 μL of 5× Substrate Stock, 16 μL of 5× Inhibitor Stock, and 32 μL of Reaction Buffer. 80 μL reactions were initiated with 16 μL of 5× Enzyme Stock and raised to 37° C. 10 μL samples were removed at eight time points (optimized to define timecourses) and stopped in 10 μL of Stopping Buffer at room temperature. Stopped reactions were placed on a 100° C. heat block for one minute, spiked with 2 μL of 5× Probe Stock while still hot, and incubated at 37° C. for 10 minutes (see Kinetic Assay Formulations for probe handling).
# Samples were diluted to […] with Streptavidin Wash Buffer and transferred to Biobind Assembly streptavidin-coated microtiter plates (Thermo Electron Corporation, Waltham, Mass., U.S.A.) and incubated at 37° C. for 45 minutes. Plates were washed with at least 5-fold excess Streptavidin Wash Buffer (in an inverted position to prevent excess biotinylated species from transferring between wells). Wells were filled with 65 μL of Fluorescence Buffer for optimum 6-FAM™ fluorescence. Plates were read in a FLUOSTAR OPTIMA™ (BMG Labtech, Offenburg, Germany) with a 490 nm excitation and 520 nm emission filters (10 nm bandpass) with the gain optimized for maximum signal. The timecourses thus collected were designated Cleavage Courses. Plates were removed and irradiated with 306 nm ultraviolet radiation for 10 minutes to cleave the PC biotin linker. They were then washed inverted with at least 5-fold excess Streptavidin Wash Buffer, filled with 65 μL of Fluorescence Buffer, and again read as above. These timecourses were designated Cleavage+Crossover Courses (FIG. 4A).
# All timecourses were fitted by nonlinear regression with un-weighted least-squares methods using SIGMAPLOT™ 8.0 (SYSTAT Software, Inc., Point Richmond, Calif., U.S.A.) (also used for graph construction). Timecourses with blanked signals in arbitrary fluorescence units were scaled by curve mean in groups of at least four replicates, culled for outliers, and averaged by time point. On average, one replicate time point was culled from each group of four used. The averaged curves were fitted to a simple, three-parameter exponential decay equation (Equation 1), time versus signal, and converted into units of concentration.
# where t is time in seconds, y0+a is the initial signal, b is a constant that determines the shape of the curve. […]
# [1] = first EC50 block, mass concentration
# [2] = second block, mass concentration
smiles,measurement,setting,value
"O=P(O)(O)NP(=O)(O)O [pNp, imidodiphosphate]",EC50,F+ donor cells; [1],0.063 µg/mL
same,EC50,F+ donor cells; first EC50 block,0.356 µM
same,EC50,F+ donor cells; [2],8000 µg/mL
same,EC50,F+ donor cells; second block,43000 µM
same,"Selectivities by EC50, Transconj.",F+ donor cells; first EC50 block,6.7E−02
same,"Selectivities by EC50, Transconj.",F+ donor cells; second block,4.9E+00
same,EC50,F− recipient cells; [1],105 µg/mL
same,EC50,F− recipient cells; first EC50 block,593 ± 3.5 µM
same,EC50,F− recipient cells; [2],6000 µg/mL
same,EC50,F− recipient cells; second block,35000 µM
same,"Selectivities by EC50, Donors",F− recipient cells; first EC50 block,1.7E+03
same,"Selectivities by EC50, Donors",F− recipient cells; second block,8.0E−01
same,"Selectivities by EC50, Transconj.",F− recipient cells; first EC50 block,1.1E+02
same,"Selectivities by EC50, Transconj.",F− recipient cells; second block,4.0E−00
same,EC50,transconjugants; first EC50 block,5 µM
same,EC50,transconjugants; [1],0.936 µg/mL
same,EC50,transconjugants; second block,9000 µM
same,EC50,transconjugants; [2],2000 µg/mL
same,"Selectivities by EC50, Donors",transconjugants; first EC50 block,1.5E+01
same,"Selectivities by EC50, Donors",transconjugants; second block,2.0E−01
same,Ki,"F plasmid TraI N300; Cleavage, C-B/E Direct Linear Plot, read-out: Kic",0.00242 µM
same,Ki,"F plasmid TraI N300; Cleavage, C-B/E Direct Linear Plot, read-out: Kiu",0.00265 µM
same,Ki,"F plasmid TraI N300; Cleavage, M/M Nonlinear Regression, competitive inhibition constant, apparent, read-out: Kic",0.0023 ± 0.00026 µM
same,Ki,"F plasmid TraI N300; Cleavage, M/M Nonlinear Regression, uncompetitive inhibition constant, apparent, read-out: Kiu",0.00317 ± 0.00032 µM
same,Ki,"F plasmid TraI N300; Crossover, C-B/E Direct linear Plot, read-out: Kic",0.00159 µM
same,Ki,"F plasmid TraI N300; Crossover, C-B/E Direct linear Plot, read-out: Kiu",0.00324 µM
same,Ki,"F plasmid TraI N300; Crossover, M/M Nonlinear Regression, read-out: Kic",0.000885 ± 0.000543 µM
same,Ki,"F plasmid TraI N300; DNA cleavage, read-out: inhibition constants (Ki values) for both competitive and uncompetitive modes (Kic and Kiu)",0.0025 to 0.003 µM
same,Ki,"F plasmid TraI N300; DNA crossover, read-out: Kic",0.0009 to 0.0016 µM
same,Ki,"F plasmid TraI N300; DNA crossover, read-out: Kiu",0.0032 µM
